The values that follow come from patent US12545654B2 (STEMSYNERGY THERAPEUTICS, INC., priority 2020, dated 2026).

The assay deals with N-myc protein. The assay can be described thus: In-cell immunostaining assay for decrease of N-myc protein level in neuroblastoma cells. Type of assay: cell-based. The note with it: human neuroblastoma cell lines (Kelly, IMR32, SK-N-BE(2)); treated overnight or up to 3 days; N-myc signal normalized over total protein; read-out: Activity (EC50 for decreasing N-myc protein level). As for the experimental part:
Human neuroblastoma cell lines were obtained from either Millipore Sigma, St. Louis, MO (Kelly cells) or American Type Culture Collection, Manassas, VA (IMR32 and SK-N-BE(2) cells). Cells were cultured in RPMI1640 medium (Corning, New York, NY), supplemented with 10% fetal bovine serum, 100 unit/mL penicillin and 100 μg/mL streptomycin (Corning, New York, NY) at 37 degree Celsius with 5% CO2 in air atmosphere. Cells cultured in flat clear bottom, black 96-well plates (Corning, New York, NY) were treated with different concentrations of a compound of the invention, which was dissolved in the culture media (200 μL/well), overnight or up to 3 days. Cells were fixed with 4% paraformaldehyde (in Phosphate-Buffered Saline or PBS, 100 μL/well) for 30 minutes at room temperature. Cells were briefly washed three times with PBS afterwards, and then treated with PBS containing 0.1% Triton X-100 (100 μL/well) for 30 minutes at room temperature. For […], cells were further treated with PBS containing 0.01% IRDye 700DX NHS Ester (LI-COR Biosciences, Lincoln, NE. 100 μL/well) for 30 minutes at room temperature. Cells were again washed three times with PBS, and then treated with a Tris-buffered saline solution with 0.1% Tween 20 (TBST) and 5% non-fat milk (50 μL/well) for 1 hour at room temperature. Cells were then treated with TBST with 5% non-fat milk (50 μL/well) containing a mouse anti N-Myc antibody (Clone B8.4.B, 1:500 dilution, Santa Cruz Biotechnology, Santa Cruz, CA), or a combination of a rabbit anti-Histone H3 (phospho S10) antibody (Clone EPR17246, 1:10000 dilution, abcam, Cambridge, MA) and a mouse anti-Histone H3 antibody (Clone 1G1, 1:250 dilution, Santa Cruz Biotechnology, Santa Cruz, CA) overnight at 4 degree Celsius in the dark. Cells were washed three times with TBST, and then treated with TBST with 5% non-fat milk (50 μL/well) containing an IRDye 800CW donkey anti-mouse IgG antibody (1:1000 dilution, LI-COR Biosciences, Lincoln, NE) for N-myc staining, or IRDye® 800CW donkey anti-rabbit IgG and IRDye 680RD donkey anti-mouse IgG antibodies (1:1000 dilution, LI-COR Biosciences, Lincoln, NE) for Histone H3 (phospho S10) and Histone H3 staining, incubated for 1 hour at room temperature in the dark. Cells were then washed four times with TBST and the plate was scanned using an Odyssey 9120 Imaging System (LI-COR Biosciences, Lincoln, NE). Signals for N-myc, total protein, Histone H3 (phospho S10), and Histone H3 were obtained from the images using the ImageStudio software (Version 4.0.21, LI-COR Biosciences, Lincoln, NE). Normalized signals for N-myc (over total protein), and Histone H3 (phospho S10) (over Histone H3) were plotted in Prism 7 software (GraphPad Software, San Diego, CA). A four-parameter dose-response curve was fitted using a variable slope model and the EC50 was calculated in Prism 7 software (GraphPad Software, San Diego, CA).

Where only a bound is given, the exact number is not on record here.

In the case of `O=C(Nc1cccc(C(F)(F)F)c1)c1sc(NC(=O)C2(C(=O)Nc3ccc(F)cc3)CC2)nc1-c1ccccc1`, the half-maximal effective concentration (EC50) was over 1 µM.

As for `O=C(Nc1ccc(Cl)c(Cl)c1)c1sc(NC(=O)C2(C(=O)Nc3ccc(F)cc3)CC2)nc1-c1ccccc1`, the EC50 is over 1 µM. Regarding `O=C(Nc1ccc(Cl)c(Cl)c1)c1sc(NC(=O)C2(C(=O)Nc3ccc(F)cc3)CC2)nc1C1CC1`, the EC50 was over 1 µM. On to `Cc1nc(NC(=O)C2(C(=O)Nc3ccc(F)cc3)CC2)sc1C(=O)Nc1cc(C(F)(F)F)ccc1Cl` [SSTA-0152, N-(5-((2-chloro-5-(trifluoromethyl)phenyl)carbamoyl)-4-methylthiazol-2-yl)-N-(4-fluorophenyl)cyclopropane-1,1-dicarboxamide], for which the concentration giving a half-maximal response (EC50) was in the range of 0.25 to 1 µM.

`Cc1nc(NC(=O)C2(C(=O)Nc3cccc(C(F)(F)F)c3)CC2)sc1C(=O)Nc1cc(C(F)(F)F)ccc1Cl` [SSTA-0168, N-(5-((2-chloro-5-(trifluoromethyl)phenyl)carbamoyl)-4-methylthiazol-2-yl)-N-(3-(trifluoromethyl)phenyl)cyclopropane-1,1-dicarboxamide]: the 50% effective concentration (EC50) was over 1 µM.

Turning to `Cc1nc(NC(=O)C2(C(=O)Nc3ccc(Cl)cc3)CC2)sc1C(=O)Nc1cc(C(F)(F)F)ccc1Cl` [SSTA-0169, N-(5-((2-chloro-5-(trifluoromethyl)phenyl)carbamoyl)-4-methylthiazol-2-yl)-N-(4-chlorophenyl)cyclopropane-1,1-dicarboxamide], the 50% effective concentration (EC50) was over 1 µM. Consider `Cc1nc(NC(=O)C2(C(=O)Nc3ccccc3Cl)CC2)sc1C(=O)Nc1cc(C(F)(F)F)ccc1Cl` [SSTA-0170, N-(5-((2-chloro-5-(trifluoromethyl)phenyl)carbamoyl)-4-methylthiazol-2-yl)-N-(2-chlorophenyl)cyclopropane-1,1-dicarboxamide], for which the EC50 is over 1 µM. The value for `Cc1nc(NC(=O)C2(C(=O)Nc3cccc(F)c3)CC2)sc1C(=O)Nc1cc(C(F)(F)F)ccc1Cl` [SSTA-0171, N-(5-((2-chloro-5-(trifluoromethyl)phenyl)carbamoyl)-4-methylthiazol-2-yl)-N-(3-fluorophenyl)cyclopropane-1,1-dicarboxamide] was over 1 µM; that for `Cc1nc(NC(=O)C2(C(=O)Nc3ccc(F)cc3)CC2)oc1C(=O)Nc1cccc(C(F)(F)F)c1` [SSTA-0190, N-(4-fluorophenyl)-N-(4-methyl-5-((3-(trifluoromethyl)phenyl)carbamoyl)oxazol-2-yl)cyclopropane-1,1-dicarboxamide] was over 1 µM. Turning to `Cc1nc(NC(=O)C2(C(=O)Nc3ccc(F)cc3)CC2)oc1C(=O)Nc1ccc(Cl)c(Cl)c1` [SSTA-0191, N-(5-((3,4-dichlorophenyl)carbamoyl)-4-methyloxazol-2-yl)-N-(4-fluorophenyl)cyclopropane-1,1-dicarboxamide], the concentration for a half-maximal effect (EC50) was over 1 µM. For `O=C(Nc1ccc(Cl)c(Cl)c1)c1sc(NC(=O)C2(C(=O)Nc3ccc(F)cc3)CC2)nc1C(F)(F)F` [SSTA-0194, N-(5-((3,4-dichlorophenyl)carbamoyl)-4-(trifluoromethyl)thiazol-2-yl)-N-(4-fluorophenyl)cyclopropane-1,1-dicarboxamide], the half-maximal effective concentration (EC50) was over 1 µM. Under `O=C(Nc1cc(C(F)(F)F)ccc1Cl)c1sc(NC(=O)C2(C(=O)Nc3ccc(F)cc3)CC2)nc1C(F)(F)F` [SSTA-0217, N-(5-((2-chloro-5-(trifluoromethyl)phenyl)carbamoyl)-4-(trifluoromethyl)thiazol-2-yl)-N-(4-fluorophenyl)cyclopropane-1,1-dicarboxamide] stands 0.25 to 1 µM; under `O=C(Nc1cc(C(F)(F)F)ccc1Cl)c1sc(NC(=O)C2(C(=O)Nc3ccc(F)cc3)CC2)nc1C1CC1` [SSTA-0218, N-(5-((2-chloro-5-(trifluoromethyl)phenyl)carbamoyl)-4-cyclopropylthiazol-2-yl)-N-(4-fluorophenyl)cyclopropane-1,1-dicarboxamide], 0.25 to 1 µM; under `Cc1nc(-c2ccc(NC(=O)C3(C(=O)Nc4nc(C)c(C(=O)Nc5cc(C(F)(F)F)ccc5Cl)s4)CC3)cc2)no1` [SSTA-0229, N-(5-((2-chloro-5-(trifluoromethyl)phenyl)carbamoyl)-4-methylthiazol-2-yl)-N-(4-(5-methyl-1,2,4-oxadiazol-3-yl)phenyl)cyclopropane-1,1-dicarboxamide], over 1 µM. Take `COc1cc(NC(=O)C2(C(=O)Nc3nc(C)c(C(=O)Nc4cc(C(F)(F)F)ccc4Cl)s3)CC2)cc(C(F)(F)F)c1` [SSTA-0234, N-(5-((2-chloro-5-(trifluoromethyl)phenyl)carbamoyl)-4-methylthiazol-2-yl)-N-(3-methoxy-5-(trifluoromethyl)phenyl)cyclopropane-1,1-dicarboxamide]: the half-maximal effective concentration (EC50) lay in the range of 0.25 to 1 µM. Take `Cc1nc(NC(=O)C2(C(=O)Nc3ccc(Cl)c(F)c3)CC2)sc1C(=O)Nc1cc(C(F)(F)F)ccc1Cl` [SSTA-0236, N-(4-chloro-3-fluorophenyl)-N-(5-((2-chloro-5-(trifluoromethyl)phenyl)carbamoyl)-4-methylthiazol-2-yl)cyclopropane-1,1-dicarboxamide]: the 50% effective concentration (EC50) lay in the range of 0.25 to 1 µM. On to `Cc1nc(NC(=O)C2(C(=O)Nc3cc(F)cc(Cl)c3)CC2)sc1C(=O)Nc1cc(C(F)(F)F)ccc1Cl` [SSTA-0237, N-(5-((2-chloro-5-(trifluoromethyl)phenyl)carbamoyl)-4-methylthiazol-2-yl)-N-(3-chloro-5-fluorophenyl)cyclopropane-1,1-dicarboxamide], for which the concentration giving a half-maximal response (EC50) lay in the range of 0.25 to 1 µM. In the case of `Cc1nc(NC(=O)C2(C(=O)Nc3ccc(F)c(F)c3)CC2)sc1C(=O)Nc1cc(C(F)(F)F)ccc1Cl` [SSTA-0238, N-(5-((2-chloro-5-(trifluoromethyl)phenyl)carbamoyl)-4-methylthiazol-2-yl)-N-(3,4-difluorophenyl)cyclopropane-1,1-dicarboxamide], the EC50 is 0.25 to 1 µM. Take `Cc1nc(NC(=O)C2(C(=O)Nc3cc(F)ccc3F)CC2)sc1C(=O)Nc1cc(C(F)(F)F)ccc1Cl` [SSTA-0239, N-(5-((2-chloro-5-(trifluoromethyl)phenyl)carbamoyl)-4-methylthiazol-2-yl)-N-(2,5-difluorophenyl)cyclopropane-1,1-dicarboxamide]: the half-maximal effective concentration (EC50) is over 1 µM. In the case of `COc1c(F)cccc1NC(=O)C1(C(=O)Nc2nc(C)c(C(=O)Nc3cc(C(F)(F)F)ccc3Cl)s2)CC1` [SSTA-0240, N-(5-((2-chloro-5-(trifluoromethyl)phenyl)carbamoyl)-4-methylthiazol-2-yl)-N-(3-fluoro-2-methoxyphenyl)cyclopropane-1,1-dicarboxamide], the EC50 was over 1 µM. The value for `COc1cc(F)cc(NC(=O)C2(C(=O)Nc3nc(C)c(C(=O)Nc4cc(C(F)(F)F)ccc4Cl)s3)CC2)c1` [SSTA-0241, N-(5-((2-chloro-5-(trifluoromethyl)phenyl)carbamoyl)-4-methylthiazol-2-yl)-N-(3-fluoro-5-methoxyphenyl)cyclopropane-1,1-dicarboxamide] was 0.25 to 1 µM.

Consider `Cc1nc(NC(=O)C2(C(=O)Nc3ccc(F)cc3OC(C)C)CC2)sc1C(=O)Nc1cc(C(F)(F)F)ccc1Cl` [SSTA-0242, N-(5-((2-chloro-5-(trifluoromethyl)phenyl)carbamoyl)-4-methylthiazol-2-yl)-N-(4-fluoro-2-isopropoxyphenyl)cyclopropane-1,1-dicarboxamide], for which the EC50 was over 1 µM.

Turning to `Cc1nc(NC(=O)C2(C(=O)Nc3ccc(F)cc3Cl)CC2)sc1C(=O)Nc1cc(C(F)(F)F)ccc1Cl` [SSTA-0247, N-(2-chloro-4-fluorophenyl)-N-(5-((2-chloro-5-(trifluoromethyl)phenyl)carbamoyl)-4-methylthiazol-2-yl)cyclopropane-1,1-dicarboxamide], the EC50 was over 1 µM. Regarding `Cc1nc(NC(=O)C2(C(=O)Nc3ccc(F)cc3F)CC2)sc1C(=O)Nc1cc(C(F)(F)F)ccc1Cl` [SSTA-0248, N-(5-((2-chloro-5-(trifluoromethyl)phenyl)carbamoyl)-4-methylthiazol-2-yl)-N-(2,4-difluorophenyl)cyclopropane-1,1-dicarboxamide], the EC50 is over 1 µM.

As usually defined, the EC50 is the concentration giving half of the maximal effect.
